Experimental data taken from PMC10762177, “Novel betulin derivatives as multidrug reversal agents targeting P-glycoprotein” (Scientific Reports, 2024).
Where “and” joins values, the source holds several entries; their conditions need not be identical. Equal entries are not always repeated. Structures can show the parent of a compound that is named as a salt. Where two headings read alike, the source gives them in different places.

What was measured:
[1] = system: K562/Dox cells; assay: MTT colorimetric assay, cytotoxicity on resistant K562/Dox; assay type: cell-based; details: for IC50: Homo sapiens, K562, 48 h, read-out: IC50 K562/Dox; for toxicity: 50 μM
Protocol: This colorimetric technique is based on the ability of viable cells to capture MTT and reduce it through the mitochondrial enzyme succinic dehydrogenase to its insoluble form, formazan crystals. The target compounds dissolved in DMSO (0.5% v/v as final concentration which was non-toxic to cells) at a maximum concentration of 50 µM were exposed to 5 × 10^4 cells distributed in a 96-well plate and incubated for 48 h. […] After this time, the plate was centrifuged at 2000 rpm for 10 min, and 100 µL of DMSO was added to dissolve the formazan crystals formed. Absorbance (Abs) was read at a wavelength of 595 nm in an iMark microplate reader (Bio-Rad, USA). The percentages of cytotoxicity were determined as compared to DMSO treated control cells, which were considered 100% viable as showing the same level of growth as the untreated cells.

[2] = biological target: P-gp (Homo sapiens, UniProt P08183); assay: Rhodamine 123 intracellular accumulation assay in K562/Dox (flow cytometry); details: for FAR (fluorescence activity ratio): Rho123, K562/Dox; for MEC (minimum effective concentration): Rho123 accumulation; for MEC (minimum effective concentration) / Rho123 accumulation / anti-P-gp activity: K562/Dox; for Rho123 accumulation / anti-P-gp activity: highest concentrations tested (50 or 6.25 µM)
P-gp, sequence (P08183 whole entry): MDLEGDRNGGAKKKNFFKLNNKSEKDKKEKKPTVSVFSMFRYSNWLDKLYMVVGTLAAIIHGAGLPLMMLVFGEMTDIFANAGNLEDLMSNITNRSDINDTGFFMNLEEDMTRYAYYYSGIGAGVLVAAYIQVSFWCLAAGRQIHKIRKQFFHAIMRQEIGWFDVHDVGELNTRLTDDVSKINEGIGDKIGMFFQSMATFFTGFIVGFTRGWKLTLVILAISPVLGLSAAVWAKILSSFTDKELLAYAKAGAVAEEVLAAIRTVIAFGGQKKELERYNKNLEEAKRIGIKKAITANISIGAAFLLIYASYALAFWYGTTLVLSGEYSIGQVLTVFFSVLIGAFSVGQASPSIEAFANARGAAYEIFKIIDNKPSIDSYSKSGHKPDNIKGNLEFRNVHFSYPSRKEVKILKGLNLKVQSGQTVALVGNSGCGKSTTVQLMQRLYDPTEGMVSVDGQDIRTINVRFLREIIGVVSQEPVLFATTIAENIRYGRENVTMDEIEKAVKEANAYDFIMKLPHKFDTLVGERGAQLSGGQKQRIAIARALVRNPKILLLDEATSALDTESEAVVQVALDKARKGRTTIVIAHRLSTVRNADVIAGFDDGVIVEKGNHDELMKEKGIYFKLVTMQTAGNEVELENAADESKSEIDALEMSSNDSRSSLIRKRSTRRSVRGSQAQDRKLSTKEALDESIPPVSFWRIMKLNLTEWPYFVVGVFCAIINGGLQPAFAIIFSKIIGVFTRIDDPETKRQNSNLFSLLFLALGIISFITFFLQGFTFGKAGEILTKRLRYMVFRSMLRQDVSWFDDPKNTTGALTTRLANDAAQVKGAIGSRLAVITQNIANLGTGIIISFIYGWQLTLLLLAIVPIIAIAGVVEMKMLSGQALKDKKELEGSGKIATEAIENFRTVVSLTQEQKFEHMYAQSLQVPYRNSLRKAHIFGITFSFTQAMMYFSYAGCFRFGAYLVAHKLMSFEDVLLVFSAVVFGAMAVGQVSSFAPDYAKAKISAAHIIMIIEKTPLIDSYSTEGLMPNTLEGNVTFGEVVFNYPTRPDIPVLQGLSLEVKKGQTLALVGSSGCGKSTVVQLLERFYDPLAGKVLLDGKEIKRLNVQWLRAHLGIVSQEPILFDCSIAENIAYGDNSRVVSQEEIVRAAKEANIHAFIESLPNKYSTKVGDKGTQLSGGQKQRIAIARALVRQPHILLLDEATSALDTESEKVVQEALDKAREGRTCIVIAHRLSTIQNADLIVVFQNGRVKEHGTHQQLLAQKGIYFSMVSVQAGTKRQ

[3] = system: K562 cells; assay: MTT colorimetric assay, cytotoxicity on sensitive K562; assay type: cell-based; details: for IC50: MTT, 48 h; for toxicity: 50 μM, K562, MTT
Protocol: This colorimetric technique is based on the ability of viable cells to capture MTT and reduce it through the mitochondrial enzyme succinic dehydrogenase to its insoluble form, formazan crystals. […] After this time, the plate was centrifuged at 2000 rpm for 10 min, and 100 µL of DMSO was added to dissolve the formazan crystals formed. Absorbance (Abs) was read at a wavelength of 595 nm in an iMark microplate reader (Bio-Rad, USA).

Compound	IC50 ([1]; MTT, 48 h, K562/Dox)	FAR (fluorescence activity ratio) ([2]; 0.78 µM)	FAR (fluorescence activity ratio) ([2]; 1.56 µM)	FAR (fluorescence activity ratio) ([2]; 3.12 µM)	FAR (fluorescence activity ratio) ([2]; 6.25 µM)	FAR (fluorescence activity ratio) ([2]; 12.50 µM)	FAR (fluorescence activity ratio) ([2]; 25 µM)	FAR (fluorescence activity ratio) ([2]; 50 µM)	MEC (minimum effective concentration) [2]	IC50 ([3]; Homo sapiens, K562, 48 h, K562)	toxicity ([1]; K562/Dox, MTT)	toxicity [3]	IC50 ([3]; K562)	Rho123 accumulation / anti-P-gp activity [2]	fold resistance of K562/Dox versus K562 ([1]; ratio of IC50 values, MTT)	inhibition on proliferation / toxicity ([1]; 50 μM (highest concentration assayed), K562/Dox)	IC50 [1]	inhibition on proliferation / toxicity ([3]; 50 μM (highest concentration assayed), K562)	IC50 ([3]; Homo sapiens, K562)
C=C(C)[C@@H]1CC[C@]2(COC(=O)Nc3cc(OC)c(OC)c(OC)c3)CC[C@]3(C)[C@H](CC[C@@H]4[C@@]5(C)CC[C@H](O)C(C)(C)[C@@H]5CC[C@]43C)[C@@H]12 [Compound 6a]	> 50 µM	0.98 ± 0.02	1.17 ± 0.02	1.12 ± 0.005	1.12 ± 0.02	1.20 ± 0.08	1.33 ± 0.11	1.62 ± 0.10	1.56 µM	> 50 µM									
C=C(C)[C@@H]1CC[C@]2(COC(=O)NCCN3CCNCC3)CC[C@]3(C)[C@H](CC[C@@H]4[C@@]5(C)CC[C@H](O)C(C)(C)[C@@H]5CC[C@]43C)[C@@H]12 [Compound 6k]	27 ± 1.34 µM	1.03 ± 0.17	1.35 ± 0.08	1.48 ± 0.07	2.24 ± 0.24				1.56 µM	9.4 µM	more than 55%	more than 55%	9.44 ± 0.08 µM						
C=C(C)[C@@H]1CC[C@]2(COC(=O)/C=C/c3cc(OC)c(OC)c(OC)c3)CC[C@]3(C)[C@H](CC[C@@H]4[C@@]5(C)CC[C@H](O)C(C)(C)[C@@H]5CC[C@]43C)[C@@H]12 [Compound 3d]	> 50 µM							1.00 ± 0.06	> 50 µM	> 50 µM				did not induce statistically significant Rho123 accumulation					
C=C(C)[C@@H]1CC[C@]2(COC(=O)NCc3cc(OC)c(OC)c(OC)c3)CC[C@]3(C)[C@H](CC[C@@H]4[C@@]5(C)CC[C@H](O)C(C)(C)[C@@H]5CC[C@]43C)[C@@H]12 [Compound 6d]	> 50 µM	1.16 ± 0.03	1.27 ± 0.08	1.64 ± 0.16	1.88 ± 0.17		2.48 ± 0.29	2.80 ± 0.32	0.78 µM	> 50 µM									
C=C(C)[C@@H]1CC[C@]2(COC(=O)/C=C/c3cc(OC)c(OC)cc3OC)CC[C@]3(C)[C@H](CC[C@@H]4[C@@]5(C)CC[C@H](O)C(C)(C)[C@@H]5CC[C@]43C)[C@@H]12 [Compound 3e]	> 50 µM							0.78 ± 0.01	> 50 µM	> 50 µM				did not induce statistically significant Rho123 accumulation					
COc1cccc2c1C(=O)c1c(O)c3c(c(O)c1C2=O)C[C@@](O)(C(=O)CO)C[C@@H]3O[C@H]1C[C@H](N)[C@H](O)[C@H](C)O1 [Doxorubicin, Doxorubicin hydrochloride, reference compound]	84.2 ± 7.08 µM									2.61 ± 0.7 µM					32.3				
C=C(C)[C@@H]1CC[C@]2(COC(=O)NCc3ccc(OC)c(OC)c3)CC[C@]3(C)[C@H](CC[C@@H]4[C@@]5(C)CC[C@H](O)C(C)(C)[C@@H]5CC[C@]43C)[C@@H]12 [Compound 6c]	> 50 µM		1.00 ± 0.02	1.13 ± 0.03	1.23 ± 0.01	1.40 ± 0.06	1.65 ± 0.11	1.97 ± 0.15	3.12 µM	> 50 µM									
C=C(C)[C@@H]1CC[C@]2(COC(=O)N3CCc4cc(OC)c(OC)cc4C3)CC[C@]3(C)[C@H](CC[C@@H]4[C@@]5(C)CC[C@H](O)C(C)(C)[C@@H]5CC[C@]43C)[C@@H]12 [Compound 6m]	> 50 µM		1.03 ± 0.12	1.17 ± 0.03	1.27 ± 0.09	1.32 ± 0.14	1.52 ± 0.09	2.06 ± 0.15	3.12 µM	> 50 µM									
C=C(C)[C@@H]1CC[C@]2(COC(=O)NCCc3ccc(OC)c(OC)c3)CC[C@]3(C)[C@H](CC[C@@H]4[C@@]5(C)CC[C@H](O)C(C)(C)[C@@H]5CC[C@]43C)[C@@H]12 [Compound 6f]	> 50 µM	1.02 ± 0.02	1.13 ± 0.04	1.25 ± 0.02	1.45 ± 0.16	1.73 ± 0.18	1.95 ± 0.25	2.27 ± 0.31	1.56 µM	> 50 µM									
C=C(C)[C@@H]1CC[C@]2(COC(=O)NCCc3ccc(OC)cc3)CC[C@]3(C)[C@H](CC[C@@H]4[C@@]5(C)CC[C@H](O)C(C)(C)[C@@H]5CC[C@]43C)[C@@H]12 [Compound 6e]	> 50 µM						1.04 ± 0.11	1.53 ± 0.09	50 µM and 50.0 µM	> 50 µM									
C=C(C)[C@@H]1CC[C@]2(COC(=O)/C=C/c3ccc(OC)cc3OC)CC[C@]3(C)[C@H](CC[C@@H]4[C@@]5(C)CC[C@H](O)C(C)(C)[C@@H]5CC[C@]43C)[C@@H]12 [Compound 3c]	> 50 µM							0.74 ± 0.05	> 50 µM	> 50 µM				did not induce statistically significant Rho123 accumulation					
C=C(C)[C@@H]1CC[C@]2(COC(=O)NCc3ccc(OC)cc3)CC[C@]3(C)[C@H](CC[C@@H]4[C@@]5(C)CC[C@H](O)C(C)(C)[C@@H]5CC[C@]43C)[C@@H]12 [Compound 6b]	> 50 µM						0.90 ± 0.11	1.60 ± 0.07	50 µM	> 50 µM									
C=C(C)[C@@H]1CC[C@]2(COC(=O)NCc3ccc(N4CCN(C)CC4)cc3)CC[C@]3(C)[C@H](CC[C@@H]4[C@@]5(C)CC[C@H](O)C(C)(C)[C@@H]5CC[C@]43C)[C@@H]12 [Compound 6l]	17.4 ± 0.59 µM			1.08 ± 0.05	1.30 ± 0.04	1.55 ± 0.03			6.25 µM	8 ± 1.98 µM	more than 55%	more than 55%							
C=C(C)[C@@H]1CC[C@]2(COC(=O)N3CCNCC3)CC[C@]3(C)[C@H](CC[C@@H]4[C@@]5(C)CC[C@H](O)C(C)(C)[C@@H]5CC[C@]43C)[C@@H]12 [Compound 6h]	12.5 ± 0.5 µM				1.06 ± 0.08					4.6 ± 0.24 µM	more than 55%	more than 55%		did not induce statistically significant Rho123 accumulation					
COc1ccc(CCN(C)CCCC(C#N)(c2ccc(OC)c(OC)c2)C(C)C)cc1OC (stereo not shown) [Verapamil, Verapamil hydrochloride, reference compound]																not toxic	> 50 µM	not toxic	> 50 µM
